“Also recorded” adds a separate entry of the source.
What was measured:
[1] = test system: H-Ras^G12V-induced tumors; assay: H-Ras^G12V-induced papilloma in LRIG1cre/ER/LSL-Ras^G12V GEMM; type: in vivo, mouse; settings: daily treatment (FIG. 7D)
Text: We first used a papilloma model driven by H- or K-Ras^G12V under the control of a skin stem cell promoter, Lrig1 (FIG. 7C) (Jaks et al., Exp Cell Res 316:1422-1428, 2010; Page et al., Cell Stem Cell 13, 471-482, 2013). In this GEMM, tamoxifen inducible Cre recombinase initiates the expression of oncogenic H- or K-Ras^G12V, and the enforced oncogenic Ras expression disrupts the skin hemeostasis during wound healing and further induces papilloma formations (FIG. 7C).
Lrig1 Cre/ER/LSL Hras and Lrig1 Cre/ER/LSL-Kras^G12D mice have been backcrossed into the FVB/N background over multiple generations to minimize the effects of genetic heterogeneity on tumor development. Cre recombinase was activated in both groups of mice by administering a single dose of 4oht (Tamoxifen), topically applied at 8 weeks of age. On day 7 thereafter, wounding was induced on their backs by cutting a 2 cm incision for papilloma development.

[2] = test system: K-Ras and CaM interaction; assay: CaM pull-down assay of K-Ras/calmodulin interaction; type: cell-based; settings: Ras^V12-transformed cells and multiple human pancreatic cancer cell lines (FIG. 5H)
[3] = test system: Ras^V12-transformed NIH/3T3 cells; assay: Tumor initiation of Ras^V12-transformed NIH/3T3 cells in nude mice; type: in vivo, mouse
Description: All experiments were approved by the IACUC of the University of California, San Francisco. Ras^V12-transformed NIH/3T3 cells were subcutaneously injected in female nude mice (Nu/Nu) at 50, 100 or 1,000 cells per flank. Palpable tumors were measured twice a week. The animals were divided into five mice per group. Pancreatic adenocarcinoma cells derived from Braf^CA and Kras^LSL-G12D mice are provided by Eric Collisson, and genotyped as described (Collison et al., Nat Med 17:500-503, 2011; Dankort et al., Genes Dev 21:379-384, 2007; Hingorani et al., Cancer Cell 4:[…], 2003). One hundred cells were orthotopically implanted in 6- to 8-week-old FVB/n mice in 20 μL 50% Matrigel using a 28.5-gauge needle. Mice were monitored for one month and were euthanized when distressed.
(§1) The drug was daily administrated into either NOD-SCID or athymic nude mice by oral gavages (OG) at 1 mg/kg or intraperitoneal (I.P) injection at 0.5 mg/kg. 10% DMSO, 10% cremophor, and 80% saline solutions were used as the solvent and vehicle control.

[4] = test system: CaMKii; assay: Western blot of phospho-CaMKii in Ras-transformed NIH/3T3 cells (and human pancreatic cancer cell lines); type: cell-based, mouse
Description: Experimental cells were washed twice in ice-cold PBS and lysed in 1% Triton lysis buffer [25 mmol/L Tris pH 7.5, 150 mmol/L NaCl, 1% Triton X-100, 1 mmol/L EDTA, 1 mmol/L EGTA, 20 mmol/L NaF, 1 mmol/L […], and 1 mmol/L DTT] supplemented with a protease inhibitor cocktail (Roche) and cleared by centrifugation. Protein concentrations were determined by the Bio-Rad Protein Assay (Bio-Rad). Equal amounts of protein extracts were resolved using SDS-PAGE (NuPAGE; Invitrogen), transferred to a nitrocellulose membrane, and immunoblotted with primary antibodies indicated, followed by secondary antibodies labeled with either IRDye800 (Rockland) or Alexa Fluor 680 (Molecular Probes) and were visualized using a LI-COR Odyssey scanner. A complete list of primary antibodies is provided in the Extended Experimental Procedures.

[5] = Toxicity by body weight changes in treated mice; type: in vivo, mouse; settings: oral or i.p. prostratin (FIG. 13D)
Description: as §1

[6] = test system: PANC1 and PANC2.13; assay: Prevention of subcutaneous human pancreatic xenograft tumors in nude mice; type: in vivo, mouse
Description: as §1

[7] = subcutaneous PANC2.13 (FIG. 6D)

## CC(=O)O[C@@]12C[C@@H](C)[C@@]3(O)C(C=C(CO)C[C@]4(O)C(=O)C(C)=C[C@@H]34)[C@@H]1C2(C)C (some centres unmarked) [prostratin, 12-deoxyphorbol-13-acetate]
[1]
  initiation of H-Ras^G12V-induced tumors: no effects
[2]
  endogenous interaction between K-Ras and CaM: abolished the endogenous interaction between K-Ras and CaM
[3]; administered orally or intra-peritoneally, nude mice (FIG. 13D)
  tumorigenicity of K-Ras^V12-transformed cells: dramatically suppressed the tumorigenicity
[3]; vs vehicle control (FIG. 13D-E)
  size of subcutaneous tumor derived from K-Ras^V12-NIH/3T3 cells: much smaller
[3]; vs vehicle control (FIG. 13E)
  phosphor-CaMKii in tumor derived from K-Ras^V12-NIH/3T3 cells: greatly increased phosphor-CaMKii
[4]; NIH/3T3 cells transformed by K-Ras^V12-S181A mutant or H-Ras^V12 (legend FIG. 5I)
  activation of CaMKii: not K-Ras^V12-S181A mutant or H-Ras^V12
[4]; Ras^V12-transformed cells and human pancreatic cancer cell lines (FIG. 5H-I)
  levels of phospho-CaMKii: dramatically elevated levels of phospho-CaMKii
[4]; cells transformed by H-Ras^V12 or K-Ras^V12-S181D (FIG. 5I)
  activity of CaMKii: did not alter the activity of CaMKii
[5]
  systemic toxicity (body weight changes): no evidence of systemic toxicity; also recorded: no systematically toxic effects
[6]; subcutaneous PANC2.13 (FIG. 6C)
  tumor initiation and tumor size by bioluminescence imaging (BLI): profoundly suppressed tumor initiation and tumor size
[6]; [7]
  expression of Ki67: reduced expression of Ki67
  tumor growth rate during therapy: dramatically reduced tumor growth rate
[6]; subcutaneous PANC2.13, vs control group (FIG. 6B)
  average size of established tumors: much smaller
[6]; subcutaneous xenograft, oral prostratin from one day before implantation, vs vehicle (FIG. 6A)
  frequency of tumor formation: significantly reduced the frequency of tumor formation
